The experiment addresses human P2X3 receptor (Homo sapiens (Human), UniProt P56373). The experiment is described as follows: Evaluation of human P2X3 receptor inhibitory activity (Test Example 1-1, FDSS 3000, 96-well, 50 nM ATP). It is filed as cell-based. The conditions noted are these: human P2X3 receptor in C6BU-1 cells; Test Example 1-1 (compounds I-001 to I-300). As for the experimental part: Stably expressing cell line (C6BU-1 cell transfected with human P2X3 receptor gene (GenBank accession number Y07683) was used. The cells were seeded in a 96-well microtiter plate at a concentration of 8000 cells/well and cultured in the medium (7.0% fetal bovine serum, 7.0% horse serum, 1% antibiotic and antifungal in DMEM) for one day at 37° C. under 5% carbon dioxide atmosphere. The medium was replaced with 4 μM Fluo-3-AM solution (20 mM HEPES, 137 mM NaCl, 5.27 mM KCl, 0.9 mM MgCl2, 1.26 mM CaCl2, 5.6 mM D-glucose, 2.5 mM probenecid, 1% BSA, and 0.08% Pluronic F-127, pH 7.5) and incubated at 37° C. under 5% dioxide carbon atmosphere for one hour. The plate was washed with washing buffer (20 mM HEPES, 137 mM NaCl, 5.27 mM KCl, 0.9 mM MgCl2, 1.26 mM CaCl2, 5.6 mM D-glucose, 2.5 mM probenecid, pH7.5), and each well was added with 40 μL of this buffer. The plate was placed in High-Throughput Screening System. FDSS 3000 (Hamamatsu Photonics K.K.). Measurement of fluorescence intensity by FDSS 3000 was started, and 40 μL of DMSO solutions containing different concentrations of the test compound as prepared by dilution with dilution buffer (20 mM HEPES, 137 mM NaCl, 5.27 mM KCl, 0.9 mM MgCl2, 1.26 mM CaCl2, 5.68 mM D-glucose, 2.5 mM probenecid, 0.1% Pluronic F-127, pH7.5) were dispensed to each well through the built-in automatic dispenser. Five minutes after, 50 nM ATP solution (50 μL) prepared by dilution with the dilution buffer was dispensed through the built-in automatic dispenser, and the measurement of fluorescence intensity was continued for 4 min. For each well, the specific maximum fluorescence intensity was calculated as the ratio of the maximum fluorescence intensity after addition of the ATP solution to the fluorescence intensity at the starting of the measurement. The 50% inhibitory concentration (IC50) was calculated under the assumption that the specific maximum fluorescence intensity without test compound is 0% inhibition and that the specific maximum fluorescence intensity when the dilution buffer was added in place of ATP solution is 100% inhibition, to evaluate the inhibitory activity of the test compound. FDSS software (Hamamatsu Photonics K.K.) was used for calculation of the specific maximum fluorescence intensity. IC50 was calculated using Microsoft Excel (Microsoft Corporation) and XLfit (idbs Ltd.)
The data of the compounds I-001 to I-300 are the results by the method mentioned in Test Example 1-1, and the data of the compounds I-301 to I-483 are the results by the method mentioned in Test Example 1-2.

human P2X3 receptor, sequence (P56373 whole entry): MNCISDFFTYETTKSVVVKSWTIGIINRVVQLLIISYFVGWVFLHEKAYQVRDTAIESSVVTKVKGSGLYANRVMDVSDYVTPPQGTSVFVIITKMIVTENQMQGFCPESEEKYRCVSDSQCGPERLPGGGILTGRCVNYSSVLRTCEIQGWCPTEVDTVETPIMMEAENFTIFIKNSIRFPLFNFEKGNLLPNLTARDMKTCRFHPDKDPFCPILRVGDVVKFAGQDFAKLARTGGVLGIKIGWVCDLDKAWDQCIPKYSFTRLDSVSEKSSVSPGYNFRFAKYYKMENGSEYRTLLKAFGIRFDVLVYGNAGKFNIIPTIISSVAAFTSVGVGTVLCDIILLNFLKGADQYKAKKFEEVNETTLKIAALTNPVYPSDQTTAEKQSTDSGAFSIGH

The IC50 is the point on the concentration scale where inhibition reaches its midpoint. Read a low IC50 as higher potency. In the case of `COC(=O)[C@@H](C)Cn1c(=O)cc(Nc2ccc(Oc3ccon3)cc2)n(Cc2ccc(Cl)cc2)c1=O` [Compound I-114], inhibition was half-maximal at 17 nM (IC50).

Turning to `COC(=O)[C@@H](C)Cn1c(=O)cc(Nc2ccc(Oc3ncccc3F)cc2)n(Cc2ccc(Cl)cc2)c1=O` [Compound I-115], inhibition was half-maximal at 9 nM (IC50).

Molecule `COC(=O)[C@@H](C)Cn1c(=O)cc(Nc2ccc(Oc3cccc(F)n3)cc2)n(Cc2ccc(Cl)cc2)c1=O` [Compound I-116] showed an IC50 of 6 nM.

The molecule `C[C@@H](Cn1c(=O)cc(Nc2ccc(Oc3ccccc3)cc2)n(Cc2ccc(Cl)cc2)c1=O)C(=O)O` [Compound I-117] displayed a half-maximal inhibitory concentration (IC50) of 26 nM.

Turning to `CCC(=O)Nc1c[nH]/c(=N\c2ccc(Oc3ccc(CO)nc3)cc2)n(Cc2ccc(Cl)cc2)c1=O` [Compound I-118], the half-inhibitory concentration (IC50) amounted to 17 nM.

Molecule `C[C@@H](Cn1c(=O)cc(Nc2ccc(Oc3ncccc3F)cc2)n(Cc2ccc(Cl)cc2)c1=O)C(=O)O` [Compound I-119] displayed an IC50 of 8 nM.

For the molecule `C[C@@H](Cn1c(=O)cc(Nc2ccc(Oc3cccc(F)n3)cc2)n(Cc2ccc(Cl)cc2)c1=O)C(=O)O` [Compound I-120], the IC50 stood at 6 nM.

`C[C@@H](Cn1c(=O)cc(Nc2ccc(Oc3ccon3)cc2)n(Cc2ccc(Cl)cc2)c1=O)C(=O)O` [Compound I-121] had an IC50 of 26 nM.

Regarding `COC(=O)[C@@H](C)Cn1c(=O)cc(Nc2ccc(Oc3cccc(C#N)n3)c(F)c2)n(Cc2ccc(Cl)cc2)c1=O` [Compound I-122], the 50% inhibitory concentration (IC50) came out at 3 nM.

`O=C(Nc1c[nH]/c(=N\c2ccc(Oc3ccon3)cc2)n(Cc2ccc(F)cc2)c1=O)C1CCOCC1` [Compound I-123] gave an IC50 of 24 nM.

Molecule `CCn1c(=O)cc(Nc2ccc(Oc3cccc(C#N)n3)cn2)n(Cc2ccc(Cl)cc2)c1=O` [Compound I-124] returned an IC50 of 19 nM.

In the case of `CCn1c(=O)cc(Nc2ccc(Oc3cccc(C(=O)O)n3)cn2)n(Cc2ccc(Cl)cc2)c1=O` [Compound I-125], the IC50 was found to be 23 nM.

On to `C[C@@H](Cn1c(=O)cc(Nc2ccc(Oc3cccc(C(N)=O)n3)c(F)c2)n(Cc2ccc(Cl)cc2)c1=O)C(=O)O` [Compound I-126], for which 3 nM corresponded to half-maximal inhibition (IC50).

`C[C@@H](Cn1c(=O)cc(Nc2ccc(Oc3cccc(C#N)n3)c(F)c2)n(Cc2ccc(Cl)cc2)c1=O)C(=O)O` [Compound I-127] showed an IC50 of 3 nM.

Turning to `CCOC(=O)c1c[nH]/c(=N\c2ccc(Oc3ccc(F)cn3)cc2)n(Cc2ccc(Cl)cc2)c1=O` [Compound I-128], the half-inhibitory concentration (IC50) came out at 35 nM.

Take `CCc1c[nH]/c(=N\c2ccc(Oc3cccc(C#N)n3)cc2)n(Cc2ccc(Cl)cc2)c1=O` [Compound I-129]: half-maximal inhibition (IC50) required 61 nM.

In the case of `CCc1c[nH]/c(=N\c2ccc(Oc3cccc(C#N)n3)c(C)c2)n(Cc2ccc(Cl)cc2)c1=O` [Compound I-130], the IC50 came to 32 nM.

In the case of `O=C(Nc1cnc(Nc2ccc(Oc3nccs3)cc2)n(Cc2ccc(Cl)cc2)c1=O)C1CCOCC1` [Compound I-131], half-maximal inhibition (IC50) was put at 2 nM.

Molecule `O=C(Nc1cnc(Nc2ccc(Oc3ncccc3F)cc2)n(Cc2ccc(Cl)cc2)c1=O)C1CCOCC1` [Compound I-132] came in with an IC50 of 2 nM.

Molecule `O=C(Nc1cnc(Nc2ccc(Oc3ccc(F)cn3)cc2)n(Cc2ccc(Cl)cc2)c1=O)C1CCOCC1` [Compound I-133] gave an IC50 of 1 nM.

With `O=C(Nc1cnc(Nc2ccc(Oc3cccc(F)n3)cc2)n(Cc2ccc(Cl)cc2)c1=O)C1CCOCC1` [Compound I-134], 2 nM corresponded to half-maximal inhibition (IC50).

`Cc1cc(Nc2ncc(NC(=O)C3CCOCC3)c(=O)n2Cc2ccc(Cl)cc2)ccc1Oc1cccc(F)n1` [Compound I-135] came in with an IC50 of 2 nM.

Molecule `Cc1cncc(Oc2ccc(Nc3ncc(NC(=O)C4CCOCC4)c(=O)n3Cc3ccc(Cl)cc3)cc2)n1` [Compound I-136] returned an IC50 of 2 nM.

As to `Cc1ccc(Oc2ccc(Nc3ncc(NC(=O)C4CCOCC4)c(=O)n3Cc3ccc(Cl)cc3)cc2)nn1` [Compound I-137], the midpoint of inhibition, the IC50, lay at 1 nM.

In turn, `CCC(=O)Nc1c[nH]/c(=N\c2ccc(Oc3cnc(C#N)cn3)cc2)n(Cc2ccc(Cl)cc2)c1=O` [Compound I-138] yielded an IC50 of 4 nM.

`Cc1cc(/N=c2\[nH]cc(C(N)=O)c(=O)n2Cc2ccc(Cl)cc2)ccc1Oc1cccc(F)n1` [Compound I-139] came in with an IC50 of 16 nM.

As for `COc1cccc(Oc2ccc(/N=c3\[nH]cc(C(N)=O)c(=O)n3Cc3ccc(Cl)cc3)cc2C)n1` [Compound I-140], the IC50 stood at 99 nM.

The molecule `O=C(O)c1c[nH]/c(=N\c2ccc(Oc3ccc(F)cn3)cc2)n(Cc2ccc(Cl)cc2)c1=O` [Compound I-141] displayed an IC50 of 467 nM.

The molecule `NC(=O)c1c[nH]/c(=N\c2ccc(Oc3ccc(F)cn3)cc2)n(Cc2ccc(Cl)cc2)c1=O` [Compound I-142] came in with an IC50 of 26 nM.

In turn, `N#Cc1cnc(Oc2ccc(/N=c3\[nH]cc(NC(=O)C4CCOCC4)c(=O)n3Cc3ccc(Cl)cc3)cc2)cn1` [Compound I-143] displayed a half-maximal inhibitory concentration (IC50) of 2 nM.

Turning to `CCc1c[nH]/c(=N\c2ccc(Oc3cccc(C(=O)O)n3)cc2)n(Cc2ccc(Cl)cc2)c1=O` [Compound I-144], the IC50 was determined as 35 nM.

`CCC(=O)Nc1c[nH]/c(=N\c2ccc(Oc3cncc(C)n3)cc2)n(Cc2ccc(Cl)cc2)c1=O` [Compound I-145] came in with an IC50 of 40 nM.

In turn, `CCC(=O)Nc1c[nH]/c(=N\c2ccc(Oc3ccc(C)nn3)cc2)n(Cc2ccc(Cl)cc2)c1=O` [Compound I-146] displayed an IC50 of 26 nM.

For the molecule `C=C(C)c1c[nH]/c(=N\c2ccc(Oc3cccc(C#N)n3)cc2)n(Cc2ccc(Cl)cc2)c1=O` [Compound I-147], the IC50 was determined as 112 nM.

The molecule `CCc1c[nH]/c(=N\c2ccc(Oc3cccc(C(=O)O)n3)c(C)c2)n(Cc2ccc(Cl)cc2)c1=O` [Compound I-148] showed an IC50 of 59 nM.

As for `Cc1noc(-c2c[nH]/c(=N\c3ccc(Oc4ccc(F)cn4)cc3)n(Cc3ccc(Cl)cc3)c2=O)n1` [Compound I-151], it took 31 nM to reach half-maximal inhibition (IC50).

As for `O=c1cc[nH]/c(=N\c2ccc(Oc3ccc(F)cn3)cc2)n1Cc1ccc(Cl)cc1` [Compound I-152], the half-inhibitory concentration (IC50) was 291 nM.

The molecule `CCOC(=O)c1c[nH]/c(=N\c2ccc(Oc3cccc(C#N)n3)cc2)n(Cc2ccc(Cl)cc2)c1=O` [Compound I-153] yielded an IC50 of 21 nM.

`CCc1cn(Cc2ccc(Cl)cc2)c(Nc2ccc(Oc3ncc(C(=O)O)s3)cc2)nc1=O` [Compound I-154] yielded an IC50 of 317 nM.

`O=C(NC1CCOCC1)c1cn(Cc2ccc(Cl)cc2)c(Nc2ccc(Oc3ncccc3F)cc2)nc1=O` [Compound I-155] registered an IC50 of 17 nM.

`O=C(NC1CCOCC1)c1cn(Cc2ccc(Cl)cc2)c(Nc2ccc(Oc3cccc(F)n3)cc2)nc1=O` [Compound I-156] displayed an IC50 of 6 nM.

In the case of `Cc1cc(Nc2nc(=O)c(C(=O)NC3CCOCC3)cn2Cc2ccc(Cl)cc2)ccc1Oc1cccc(F)n1` [Compound I-157], the half-maximal inhibitory concentration (IC50) is 11 nM.

In turn, `O=C(NC1CCOCC1)c1cn(Cc2ccc(Cl)cc2)c(Nc2ccc(Oc3ccc(F)cn3)cc2)nc1=O` [Compound I-158] came in with an IC50 of 11 nM.

`Cc1cc(Nc2nc(=O)c(C(=O)NC3CCOCC3)cn2Cc2ccc(Cl)cc2)ccc1Oc1ncccc1F` [Compound I-160] registered an IC50 of 26 nM.

For `O=C(NC1CCOCC1)c1cn(Cc2ccc(Cl)cc2)c(Nc2ccc(Oc3nccs3)cc2)nc1=O` [Compound I-161], half-maximal inhibition (IC50) required 22 nM.

`CCC(=O)Nc1c[nH]/c(=N\c2ccc(Oc3ccnc(CO)c3)cc2)n(Cc2ccc(Cl)cc2)c1=O` [Compound I-163] displayed an IC50 of 21 nM.

The molecule `CCCn1c(=O)cc(Nc2ccc(Oc3cccc(C#N)n3)cc2)n(Cc2ccc(Cl)cc2)c1=O` [Compound I-164] came in with a 50% inhibitory concentration (IC50) of 10 nM.

As for `CCCn1c(=O)cc(Nc2ccc(Oc3cccc(C(=O)OCC)c3)cn2)n(Cc2ccc(Cl)cc2)c1=O` [Compound I-166], the midpoint of inhibition, the IC50, lay at 169 nM.

As to `CCCn1c(=O)cc(Nc2ccc(Oc3cccc(C(=O)O)c3)cn2)n(Cc2ccc(Cl)cc2)c1=O` [Compound I-167], the IC50 is 35 nM.

On to `CCCn1c(=O)cc(Nc2ccc(Oc3cccc(C(=O)OC)c3)cc2)n(Cc2ccc(Cl)cc2)c1=O` [Compound I-168], for which the IC50 was 159 nM.

With `CCCn1c(=O)cc(Nc2ccc(Oc3cccc(C(=O)O)c3)cc2)n(Cc2ccc(Cl)cc2)c1=O` [Compound I-169], the midpoint of inhibition, the IC50, lay at 11 nM.

With `CCc1c[nH]/c(=N\c2ccc(Oc3cncc(C(=O)O)c3)cc2)n(Cc2ccc(Cl)cc2)c1=O` [Compound I-170], the IC50 came to 54 nM.

The values above are taken from patent US9550763B2, “Heterocyclic ring and carbocyclic derivative” (Shionogi & Co., Ltd., priority 2012, dated 2017).
